According to paper PMC10257291, “Biological activities of extracts and compounds from Thai Kae-Lae (Maclura cochinchinensis (Lour.) Corner)” (BMC Complementary Medicine and Therapies, 2023):

Legend:
WT1 protein = WT1 protein expression by Western blot in EoL-1 cells; type: cell-based, human; details: IC20 value, 48 h, vs vehicle control
Method: Leukaemic stem cells (KG-1a) and leukaemic cells (EoL-1 and K562) were used as cell models which overexpressed WT1 protein expression. Cells were treated with crude fractional extracts and active compounds at a 20% growth inhibition (IC20 value) of each extract. Following 48-h of incubation, cells were washed. The whole protein was extracted using RIPA buffer. The protein concentration was determined by the Pierce™ BCA Protein Assay Kit (ThermoFisher Scientific, IL, USA). Extracted protein sample at 30 − 50 μg was loaded to 12% SDS-PAGE and then transferred to PVDF membranes. The method was done as previously described. The specific protein bands were determined by Luminata™ Forte Western HRP substrate (Merck, Darmstadt, Germany) and exposed to X-ray film (Sakura, Japan). Quantity One 1-D Analysis software (Bio-Rad, USA) was used to quantify densitometry. The density values of WT1 bands were normalized to GAPDH bands.

TNF-α = TNF-α secretion in LPS-stimulated RAW 264.7 cells (ELISA); type: cell-based, mouse; details: sample at IC20 value; vs dexamethasone 1 μg/mL; LPS 1 μg/mL
Source text: Mouse monocyte macrophage RAW 264.7 cells (American Type Culture Collection, […]-71) were stimulated with lipopolysaccharide (LPS) or phytohemagglutinin (PHA). The LPS treated RAW 264.7 cells served as a vehicle control, of which the NO production, and the secreted cytokines were defined as 100%, whereas a negative control was non-treated RAW 264.7 cells. Dexamethasone (an anti-inflammatory drug) was used as a positive control. PBMCs (1 × 10^5 cells/well in RPMI-1640 for IL-2) and Raw cells (1 × 10^5 cells/well in DMEM for TNF-α) were seeded for 24 h in a CO2 incubator set at 37 °C and 5% CO2/95% humidified air. Then cells were treated with […] fractional extracts (IC20 value) or pure compounds (IC20 value), or dexamethasone (1 μg/mL) were added. […] After 24 h, the media were removed and centrifuged at 13,500 × g for 10 min and 100 μL of the supernatant was analysed by the protocol of R&D Systems, Minneapolis, MN, USA using ELISA technique. The absorbance was measured at 450 nm and corrected with the reference wavelength of 570 nm (Beckman CoulterDTX880, Fullerton, CA, USA). Viability of PBMCs and RAW 264.7 cells was also determined using MTT assay as described previously. IL-2 and TNF-α secretion inhibitions were calculated as bellow:4 %Cytokineinhibition=A-B/A×100 A is the optical density of the mixture without the sample, while B is the optical density of the mixture with the sample. […]

Row | SMILES | suppression of WT1 protein expression in EoL-1 cells (WT1 protein) [%] | suppression of WT1 protein expression in EoL-1 cells (WT1 protein; listed as resveratrol) [%] | TNF-α inhibition (TNF-α)
1 | Oc1ccc(/C=C/c2cc(O)cc(O)c2)cc1 [Resveratrol, resveratrol] | 76.73 | 76.73 ± 4.08 | –
2 | O=c1c(O)c(-c2ccc(O)c(O)c2)oc2cc(O)cc(O)c12 [Quercetin, quercetin] | – | – | significantly more potent inhibition of IL-2, TNF-α, and NO than dexamethasone
